Legend:
Caspase-8 = target: T1, Caspase-8 (Homo sapiens, UniProt Q14790); test: Caspase inhibitory effect, fluorescent substrate AcDEVD-AFC; type: biochemical; details: pH 7.5; 2.1 nM caspase-8, 50 μM AcDEVD-AFC, 25° C., pH 7.50; read-out: Caspase-8 Kobs/[I] (converted)
T1 construct: p10 and p20 subunits (Thornberry, N. A. et al, Nature, 1992, 356, 768) were expressed in E. coli; made in house; host or cells: E. coli
Procedure: Caspase-1 and caspase-8 known as cysteine proteases in the form of α2β2 were expressed, purified, and activated by modifying a method known in Thornberry, N. A. et al, Nature, 1992, 356, 768. Thornberry, N. A. Methods in Enzymology, 1994, 244, 615. Walker, N. P. C. et al. Cell, 1994, 78, 343, and caspase-9 was also purified by a similar method, and the inhibitory activity against them was tested. Briefly describing, p10 and p20 subunits (Thornberry, N. A. et al, Nature, 1992, 356, 768) were expressed in E. coli and purified by nickel column and anionic exchange chromatography to give caspase-1, caspase-8 and caspase-9. The fluorescent substrates AcYVAD-AFC for thus obtained caspase-1, AcDEVD-AFC for caspase-8, and AcLEHD-AFC for caspase-9, were used for determining specific activity of the synthesized inhibitors. The enzyme reaction was carried out at 25° C. with various concentrations of the inhibitors in a buffer solution containing 50 mM HEPES(pH 7.50), 10% (w/v) sucrose, 0.1% (w/v) CHAPS, 100 mM NaCl, 1 mM EDTA, and 10 mM DTT in the presence of 50 μM AcYVAD-AFC for 10 nM caspase-1, 50 μM AcDEVD-AFC for 2.1 nM caspase-8, and 150 μM AcLEHD-AFC for 200 nM caspase-9. The inhibitory constants Ki and Kobs of the inhibitors were determined by measuring the reaction velocity with the time lapse using a fluorescent spectrometer and by obtaining the initial rate constant. Ki was calculated from the Lineweaver Burk Plot, and Kobs from the following Equation 1. Kobs=−ln(1−At/Aoo)/t [Equation 1]
At means cleavage rate (%) at time t, and
Aoo means the maximum cleavage rate (%).
Spectra MAX GeminiXS Fluorescent Spectrometer of Molecular Device Co. was used at the excitation wavelength of 405 nm and the emission wavelength of 505 nm.

[1] = tested on: Jurkat cell (ATCC TIB-152); test: Jurkat cell apoptosis induced by Fas antibody, WST-1 method; type: cell-based; details: Homo sapiens, amount of alive cells by WST-1
Procedure: The […] inhibitory activity of the inhibitors was determined by subjecting Jurkat cell (ATCC TIB-152) to apoptosis using Fas antibody (Upstate Biotech 05-201) and by detecting the color change according to the WST-1 method known in Francoeur A. M. and Assalian A. (1996) Biochemica 3, 19-25 to observe the amount of alive Jurkat cells when the cells were treated by the inhibitor. Spectra MAX 340 Spectrometer of Molecular Device Co. was used at the absorbance wavelength of 440 nm.

T1 sequence (Q14790 217-374 limits assumed, species assumed): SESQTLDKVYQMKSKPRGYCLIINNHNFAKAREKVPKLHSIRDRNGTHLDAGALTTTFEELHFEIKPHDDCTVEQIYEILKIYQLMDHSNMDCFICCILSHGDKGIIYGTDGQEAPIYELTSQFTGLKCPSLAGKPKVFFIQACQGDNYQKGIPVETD
T1 sequence (Q14790 385-479 limits assumed, species assumed): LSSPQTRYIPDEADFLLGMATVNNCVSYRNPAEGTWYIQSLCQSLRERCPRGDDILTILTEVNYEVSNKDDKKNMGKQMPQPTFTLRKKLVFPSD

| SMILES | kinact/KI (Caspase-8) | IC50 [1] |
| --- | --- | --- |
| CC[C@@H](C(=O)N[C@@H](CC(=O)O)C(=O)COc1c(F)c(F)cc(F)c1F)c1ccnn(Cc2ccccc2C(C)(C)C)c1=O [Example 24-1, (S)-3-{(R)-2-[2-(2-tert-Butyl-benzyl)-3-oxo-2,3-dihydro-pyridazin-4-yl]-butyrylamino}-4-oxo-5-(2,3,5,6-tetrafluoro-phenoxy)-pentanoic acid] | 63300 M⁻¹ s⁻¹ | 12 nM |
| CC[C@H](C(=O)N[C@@H](CC(=O)O)C(=O)COc1c(F)c(F)cc(F)c1F)c1ccnn(Cc2ccccc2C(C)(C)C)c1=O [Example 24-2, (S)-3-{(S)-2-[2-(2-tert-Butyl-benzyl)-3-oxo-2,3-dihydro-pyridazin-4-yl]-butyrylamino}-4-oxo-5-(2,3,5,6-tetrafluoro-phenoxy)-pentanoic acid] | 1830 M⁻¹ s⁻¹ | 4150 nM |
| CC[C@@H](C(=O)N[C@@H](CC(=O)O)C(=O)COc1c(F)c(F)cc(F)c1F)c1ccnn(Cc2cccc(C(C)(C)C)c2)c1=O [Example 25-1, (S)-3-{(R)-2-[2-(3-tert-Butyl-benzyl)-3-oxo-2,3-dihydro-pyridazin-4-yl]-butyrylamino}-4-oxo-5-(2,3,5,6-tetrafluoro-phenoxy)-pentanoic acid] | 26700 M⁻¹ s⁻¹ | 31 nM |
| CC[C@H](C(=O)N[C@@H](CC(=O)O)C(=O)COc1c(F)c(F)cc(F)c1F)c1ccnn(Cc2cccc(C(C)(C)C)c2)c1=O [Example 25-2, (S)-3-{(S)-2-[2-(3-tert-Butyl-benzyl)-3-oxo-2,3-dihydro-pyridazin-4-yl]-butyrylamino}-4-oxo-5-(2,3,5,6-tetrafluoro-phenoxy)-pentanoic acid] | 900 M⁻¹ s⁻¹ | 1940 nM |
| CC[C@@H](C(=O)N[C@@H](CC(=O)O)C(=O)COc1c(F)ccc(F)c1F)c1ccnn(Cc2ccccc2C(C)(C)C)c1=O [Example 26-1, (S)-3-{(R)-2-[2-(2-tert-Butyl-benzyl)-3-oxo-2,3-dihydro-pyridazin-4-yl]-butyrylamino}-4-oxo-5-(2,3,6-trifluoro-phenoxy)-pentanoic acid] | 28300 M⁻¹ s⁻¹ | 45 nM |
| CC[C@@H](C(=O)N[C@@H](CC(=O)O)C(=O)COc1c(F)cccc1F)c1ccnn(Cc2ccccc2C(C)(C)C)c1=O [Example 27-1, (S)-3-{(R)-2-[2-(2-tert-Butyl-benzyl)-3-oxo-2,3-dihydro-pyridazin-4-yl]-butyrylamino}-5-(2,6-difluoro-phenoxy)-4-oxo-pentanoic acid] | 11700 M⁻¹ s⁻¹ | 90 nM |
| CCC(C(=O)N[C@@H](CC(=O)O)C(=O)COP(=O)(c1ccccc1)c1ccccc1)c1ccnn(Cc2ccccc2C(C)(C)C)c1=O (stereo partly drawn) [Example 28, (S)-3-{2-[2-(2-tert-Butyl-benzyl)-3-oxo-2,3-dihydro-pyridazin-4-yl]-butyrylamino}-5-(diphenyl-phosphinoyloxy)-4-oxo-pentanoic acid] | 56700 M⁻¹ s⁻¹ | 365 nM |

— patent US8481537B2, “Caspase inhibitors based of pyridazinone scaffold” (LG Life Sciences Ltd., priority 2006, dated 2013)
